Measurements reported in ChEMBL document CHEMBL6087479, “Discovery of a Potent and Selective GSPT1 Molecular Glue Degrader for the Treatment of Castration-Resistant Prostate Cancer” (J Med Chem, 2025).
Active and inactive are the calls of the source. No cut-off for these calls is given here.

Assays:
LNCaP = assay: cells; conditions: Homo sapiens, 96 h
Description: Antiproliferative activity against human LNCaP cells assessed as inhibition of cell proliferation incubated for 96 hrs by CellTiter-Glo assay

LNCaP C4-2B = assay: cells; conditions: Homo sapiens, 96 h
Description: Antiproliferative activity against human LNCaP C4-2B cells assessed as inhibition of cell proliferation incubated for 96 hrs by CellTiter-Glo assay

CWR22R [1] = assay: cells; conditions: Homo sapiens, 22Rv1, 96 h
Description: Antiproliferative activity against human 22Rv1 cells assessed as inhibition of cell proliferation incubated for 96 hrs by CellTiter-Glo assay

[2] = target: Protein cereblon/Eukaryotic peptide chain release factor GTP-binding subunit ERF3A (Homo sapiens) (UniProt Q96SW2+P15170); assay: Protac activity at CRBN/GSPT1 in human 22Rv1 cells assessed as GSPT1 degradation at 12 to 1000 nM incubated for 6 hrs by Western blotting analysis; format: cell-based; conditions: dose 12-1000 nM
[3] = target: Protein cereblon/Bromodomain-containing protein 4 (Homo sapiens) (UniProt O60885+Q96SW2); assay: Molecular glue degradation activity at CRBN/BRD4 in human 22Rv1 cells at 12 to 1000 nM incubated for 6 hrs by Immunoblotting analysis; format: cell-based; conditions: dose 12-1000 nM
CWR22R [4] = assay: Antiproliferative activity against human 22Rv1 cells assessed as inhibition of cell proliferation by CellTiter-Glo assay

Sequence of Protein cereblon/Eukaryotic peptide chain release factor GTP-binding subunit ERF3A (Homo sapiens) (P15170 whole entry, looked up): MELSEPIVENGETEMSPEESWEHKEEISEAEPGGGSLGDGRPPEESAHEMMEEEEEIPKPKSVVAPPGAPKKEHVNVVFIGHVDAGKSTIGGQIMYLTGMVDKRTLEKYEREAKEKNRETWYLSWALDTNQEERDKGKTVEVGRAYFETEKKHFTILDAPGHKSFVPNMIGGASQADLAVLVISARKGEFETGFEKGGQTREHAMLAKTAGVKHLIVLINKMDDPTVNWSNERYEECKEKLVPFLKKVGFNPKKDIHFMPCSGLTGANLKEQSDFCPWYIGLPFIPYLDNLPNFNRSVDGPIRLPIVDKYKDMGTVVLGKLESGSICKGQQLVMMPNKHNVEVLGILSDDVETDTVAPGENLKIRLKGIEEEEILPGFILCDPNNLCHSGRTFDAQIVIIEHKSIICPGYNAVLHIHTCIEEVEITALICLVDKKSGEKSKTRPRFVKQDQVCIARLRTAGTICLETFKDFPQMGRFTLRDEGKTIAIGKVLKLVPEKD
Sequence of Protein cereblon/Eukaryotic peptide chain release factor GTP-binding subunit ERF3A (Homo sapiens) (Q96SW2 whole entry, looked up): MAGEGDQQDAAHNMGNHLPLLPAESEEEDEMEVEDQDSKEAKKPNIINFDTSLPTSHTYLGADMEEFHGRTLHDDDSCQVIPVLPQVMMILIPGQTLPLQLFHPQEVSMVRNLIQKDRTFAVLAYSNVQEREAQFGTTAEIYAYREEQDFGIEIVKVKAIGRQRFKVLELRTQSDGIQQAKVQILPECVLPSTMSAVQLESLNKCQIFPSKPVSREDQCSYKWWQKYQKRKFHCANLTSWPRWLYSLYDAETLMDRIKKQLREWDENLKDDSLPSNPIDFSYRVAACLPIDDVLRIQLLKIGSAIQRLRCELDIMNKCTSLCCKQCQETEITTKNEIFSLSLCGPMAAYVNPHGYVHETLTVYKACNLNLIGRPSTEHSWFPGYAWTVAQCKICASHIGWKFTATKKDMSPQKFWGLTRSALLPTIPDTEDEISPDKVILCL
Sequence of Protein cereblon/Bromodomain-containing protein 4 (Homo sapiens) (Q96SW2 whole entry, looked up, other chains not shown): as the sequence (Q96SW2 whole entry, looked up) above

Structure (SMILES)	IC50 (LNCaP)	IC50 (LNCaP C4-2B)	IC50 (CWR22R [1])	Activity [2]	Activity [3]	IC50 (CWR22R [4])
COc1ccc(Br)cc1S(=O)(=O)Nc1cc2c(C)noc2cc1OCC(=O)NCCCNC(=O)COc1cccc2c1C(=O)N(C1CCC(=O)NC1=O)C2=O (stereo not given)	> 10 µM	> 10 µM	> 10 µM			
COc1ccc(Br)cc1S(=O)(=O)Nc1cc2c(C)noc2cc1OCC(=O)NCCCCCCNc1cccc2c1C(=O)N(C1CCC(=O)NC1=O)C2=O (stereo not given)	2.48 µM	> 10 µM	0.909 µM	Active; Moderate Effect Of Degradation Observed	inactive	
COc1cc2onc(C)c2cc1NS(=O)(=O)c1cc(Br)ccc1OC	2.52 µM	1.8 µM	1.61 µM			
COc1ccc(Br)cc1S(=O)(=O)Nc1cc2c(C)noc2cc1OCC(=O)NCCCCNC(=O)COc1cccc2c1C(=O)N(C1CCC(=O)NC1=O)C2=O (stereo not given)	> 10 µM	> 10 µM	> 10 µM			
COc1ccc(Br)cc1S(=O)(=O)Nc1cc2c(C)noc2cc1OCC(=O)NCCCCNc1ccc2c(c1)C(=O)N(C1CCC(=O)NC1=O)C2=O (stereo not given)	> 10 µM	> 10 µM	> 10 µM			
COc1ccc(Br)cc1S(=O)(=O)Nc1cc2c(C)noc2cc1OCC(=O)NCCCCCCNc1ccc2c(c1)C(=O)N(C1CCC(=O)NC1=O)C2=O (stereo not given)	> 10 µM	> 10 µM	> 10 µM			
COc1ccc(Br)cc1S(=O)(=O)Nc1cc2c(C)noc2cc1OCC(=O)NCCCCCNc1ccc2c(c1)C(=O)N(C1CCC(=O)NC1=O)C2=O (stereo not given)	> 10 µM	> 10 µM	> 10 µM			
O=C1CCC(N2Cc3cc(CNC(=O)C(F)(F)c4ccc(Cl)cc4)ccc3C2=O)C(=O)N1 (stereo not given)						0.016 µM
COc1ccc(Br)cc1S(=O)(=O)Nc1cc2c(C)noc2cc1OCC(=O)NCCCCCNC(=O)COc1cccc2c1C(=O)N(C1CCC(=O)NC1=O)C2=O (stereo not given)	> 10 µM	> 10 µM	> 10 µM			
COc1ccc(Br)cc1S(=O)(=O)Nc1cc2c(C)noc2cc1OCC(=O)NCCNc1cccc2c1C(=O)N(C1CCC(=O)NC1=O)C2=O (stereo not given)	> 10 µM	> 10 µM	> 10 µM			
